In patent publication US20200291100A1, “TREATMENT OF AGE-RELATED AND MITOCHONDRIAL DISEASES BY INHIBITION OF HIF-1 ALPHA FUNCTION” (President and Fellows of Harvard College, priority 2012, published 2020):

System: PGC-1α/β KO cells
Assay: Pyruvate supplementation of PGC-1α/β KO cells with or without DMOG, mitochondrial-encoded gene expression
Type: cell-based, mouse
Conditions: DMOG added to pyruvate-treated cells
Text: FIGS. 21A-21N provide additional data related to the content of FIG. 14. FIG. 21A depicts HIF-1α target genes (PGK-1, Glut1, PDK1 and Vegfa) expression in gastrocnemius of WT and SIRT1 KO mice. Relative expression values were normalized to WT mice (n=5). FIG. 21B depicts hypoxia response element activity in primary myoblasts isolated from WT and SIRT1 KO mice and treated with or without DMOG. Relative luciferase activity was normalized to WT cells (n=6, *p<0.05 versus WT). FIG. 21C depicts a representative immunoblot of HIF-1a and Tubulin in PGC-1α/β KO myotubes treated with adenovirus overexpressing SIRT1 or empty vector as well as treatment with DMSO or with HIF stabilizing compound DMOG. FIG. 21D depicts NAD+/NADH ration measured in primary WT myoblasts treated with either 10 mM pyruvate, 10 mM lactate or vehicle for 24 h (n=4). […] FIG. 21J depicts mitochondrial DNA content analyzed by qPCR in control, HIF-1α DPA or HIF-2α DPA C2C12 cells treated with adenovirus overexpressing SIRT1 or empty vector. […] FIG. 21K depicts ARNT mRNA analyzed by qPCR in C2C12 cells infected with ARNT or nontargeting shRNA. […] FIG. 21L depicts mitochondrial DNA content analyzed by qPCR in C2C12 cells infected with ARNT or nontargeting shRNA. […] FIG. 21M depicts ND1, Cytb, COX1 and ATP6 mRNA analyzed by qPCR in C2C12 cells infected with ARNT or nontargeting shRNA. […] Values are expressed as mean±SEM. […]

## COC(=O)CNC(=O)C(=O)OC [DMOG, dimethyloxaloylglycine]
  effect on NAD+ mediated increases in mitochondrial-encoded genes: inhibited
